Among the data in ChEMBL document CHEMBL1909574, “Acid mediated formation of an N-acyliminium ion from tubulysins: a new methodology for the synthesis of natural tubulysins and their analogs” (Bioorg Med Chem Lett, 2011) are IC50 values, retold here.

The test system of the assay is KB. The assay can be described thus: Growth inhibition of human KB cells by [3H]thymidine incorporation assay. The format is functional, cell-based.

For `CC[C@H](C)[C@H](NC(=O)[C@H]1CCCCN1C)C(=O)N(CSCCO)[C@H](C[C@@H](OC(C)=O)c1nc(C(=O)N[C@@H](Cc2ccc(O)cc2)C[C@H](C)C(=O)O)cs1)C(C)C`, the IC50 (Homo sapiens, KB) was found to be 26 nM.

As for `CCCCCSCN(C(=O)[C@@H](NC(=O)[C@H]1CCCCN1C)[C@@H](C)CC)[C@H](C[C@@H](OC(C)=O)c1nc(C(=O)N[C@@H](Cc2ccc(O)cc2)C[C@H](C)C(=O)O)cs1)C(C)C`, the midpoint of inhibition (Homo sapiens, KB), the IC50, lay at 0.8 nM.

`C=CCCN(C(=O)[C@@H](NC(=O)[C@H]1CCCCN1C)[C@@H](C)CC)[C@H](C[C@@H](OC(C)=O)c1nc(C(=O)N[C@@H](Cc2ccc(O)cc2)C[C@H](C)C(=O)O)cs1)C(C)C` had an IC50 (Homo sapiens, KB) of 1.3 nM. Against the preceding compound, the IC50 is about 1.6-fold higher. `CC[C@H](C)[C@H](NC(=O)[C@H]1CCCCN1C)C(=O)N(CSCCS)[C@H](C[C@@H](OC(C)=O)c1nc(C(=O)N[C@@H](Cc2ccc(O)cc2)C[C@H](C)C(=O)O)cs1)C(C)C` displayed an IC50 (Homo sapiens, KB) of 26 nM. As to `CCCOCN(C(=O)[C@@H](NC(=O)[C@H]1CCCCN1C)[C@@H](C)CC)[C@H](C[C@@H](OC(C)=O)c1nc(C(=O)N[C@@H](Cc2ccc(O)cc2)C[C@H](C)C(=O)O)cs1)C(C)C`, the IC50 (Homo sapiens, KB) stood at 1.4 nM.

In turn, `CC[C@@H](C)[C@H](NC(=O)[C@H]1CCCCN1C)C(=O)N(COC(=O)CC(C)C)[C@H](C[C@@H](OC(C)=O)c1nc(C(=O)N[C@@H](Cc2ccc(O)cc2)C[C@H](C)C(=O)O)cs1)C(C)C` [TUBULYSIN A] registered an IC50 (kb) of 1 nM. In turn, `CCCSCN(C(=O)[C@@H](NC(=O)[C@H]1CCCCN1C)[C@@H](C)CC)[C@H](C[C@@H](OC(C)=O)c1nc(C(=O)N[C@@H](Cc2ccc(O)cc2)C[C@H](C)C(=O)O)cs1)C(C)C` registered an IC50 (Homo sapiens, KB) of 1.4 nM.

For the setting “Homo sapiens, KB”, `CC[C@H](C)[C@H](NC(=O)[C@H]1CCCCN1C)C(=O)N(COCCC(C)C)[C@H](C[C@@H](OC(C)=O)c1nc(C(=O)N[C@@H](Cc2ccc(O)cc2)C[C@H](C)C(=O)O)cs1)C(C)C` displayed an IC50 of 12 nM. Against the preceding compound, the IC50 is about 8.6-fold higher. For the compound `CCCC(=O)OCN(C(=O)[C@@H](NC(=O)[C@H]1CCCCN1C)[C@@H](C)CC)[C@H](C[C@@H](OC(C)=O)c1nc(C(=O)N[C@@H](Cc2ccc(O)cc2)C[C@H](C)C(=O)O)cs1)C(C)C` [TUBULYSIN B], the IC50 (Homo sapiens, KB) is 2 nM. Same read-out and setting: the result for `CC[C@H](C)[C@H](NC(=O)[C@H]1CCCCN1C)C(=O)N(CNC(=O)CC(C)C)[C@H](C[C@@H](OC(C)=O)c1nc(C(=O)N[C@@H](Cc2ccc(O)cc2)C[C@H](C)C(=O)O)cs1)C(C)C` reads 8 nM. Same read-out and setting: next, `CCSCN(C(=O)[C@@H](NC(=O)[C@H]1CCCCN1C)[C@@H](C)CC)[C@H](C[C@@H](OC(C)=O)c1nc(C(=O)N[C@@H](Cc2ccc(O)cc2)C[C@H](C)C(=O)O)cs1)C(C)C`: 2 nM. Same read-out and setting: the result for `CC[C@H](C)[C@H](NC(=O)[C@H]1CCCCN1C)C(=O)N(COCCO)[C@H](C[C@@H](OC(C)=O)c1nc(C(=O)N[C@@H](Cc2ccc(O)cc2)C[C@H](C)C(=O)O)cs1)C(C)C` reads 18 nM; that for `CC[C@H](C)[C@H](NC(=O)[C@H]1CCCCN1C)C(=O)N(COC)[C@H](C[C@@H](OC(C)=O)c1nc(C(=O)N[C@@H](Cc2ccc(O)cc2)C[C@H](C)C(=O)O)cs1)C(C)C`, 9 nM; that for `CCCCSCN(C(=O)[C@@H](NC(=O)[C@H]1CCCCN1C)[C@@H](C)CC)[C@H](C[C@@H](OC(C)=O)c1nc(C(=O)N[C@@H](Cc2ccc(O)cc2)C[C@H](C)C(=O)O)cs1)C(C)C`, 0.7 nM.

One may read the IC50 as the point on the concentration scale where inhibition reaches its midpoint. Read a high IC50 as a need for much substance.
